The text below walks through data of patent US20050107423A1, “Quinolone antibacterial agents” (priority 2003, published 2005).

In brackets after ≈: the same amount, converted by molar mass.

Common to all, as to test: Antibacterial assay, microtitration MIC (Test A)
What all share (assay type): cell-based

One assay relates to S. pneumo SV-1. Conditions: Gram Positive Bacteria; strain SV-1; read-out: Minimum Inhibitory Concentrations S. pneumo SV-1. Summed up:
(§1)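 Minimum inhibitory concentrations were determined by standard microtitration techniques against the listed Gram-negative and Gram-positive bacterial strains.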

The next assay relates to S pyogenes C203. Conditions: Gram Positive Bacteria, strain C203; for MIC: read-out: Minimum Inhibitory Concentrations S pyogenes C203. In short, it runs like this:
as §1

In a further assay the test system is S. aureus UC-76. As to conditions: strain UC-76; for MIC: Staphylococcus aureus, UC76, Gram Positive Bacteria, read-out: Minimum Inhibitory Concentrations S. aureus UC-76. In short, it runs like this: as §1
For a further assay, the system named is E. faecalis MGH-2. As to conditions: strain MGH-2; for MIC: Enterococcus faecalis, MGH2, Gram Positive Bacteria, read-out: Minimum Inhibitory Concentrations E. faecalis MGH-2. Summed up:
as §1

As to `Cc1c(N2CC(C)(CO)C(C)(CO)C2)c(F)cc2c(=O)c(C(=O)O)cn(C3CC3)c12` (centres unmarked) [drawing 440], the MIC in the assay on S. pneumo SV-1 amounted to 0.5 µg/mL (≈ 1.19 µM). Further, in the assay on S pyogenes C203, the “Minimum Inhibitory Concentrations S pyogenes C203” value turned out to be 1 µg/mL. The “Minimum Inhibitory Concentrations S. aureus UC-76” value with S. aureus UC-76 (Gram Positive Bacteria) came to 0.015 µg/mL. In the assay on E. faecalis MGH-2 (Gram Positive Bacteria), the “Minimum Inhibitory Concentrations E. faecalis MGH-2” value was found to be 1 µg/mL.
In the case of `Cc1c(N2C[C@@H]3CC[C@@H](O)[C@@H]3C2)c(F)cc2c(=O)c(C(=O)O)cn(C3CC3)c12` [drawing 453], the MIC in the assay with S. pneumo SV-1 was found to be 0.03 µg/mL (≈ 0.0776 µM); with S pyogenes C203, 0.06 µg/mL (≈ 0.155 µM); in the assay with S. aureus UC-76, 0.004 µg/mL (≈ 0.0104 µM); with E. faecalis MGH-2 it was 0.06 µg/mL (≈ 0.155 µM).
Consider `Cc1c(N2C[C@@H]3C[C@@H](O)[C@@H](O)[C@@H]3C2)c(F)cc2c(=O)c(C(=O)O)cn(C3CC3)c12` [drawing 457], for which the MIC was determined as 0.125 µg/mL (≈ 0.311 µM) with S. pneumo SV-1, 0.125 µg/mL (≈ 0.311 µM) in the assay on S pyogenes C203, 0.008 µg/mL (≈ 0.0199 µM) in the assay on S. aureus UC-76 and 0.125 µg/mL (≈ 0.311 µM) in the assay with E. faecalis MGH-2.
For the compound `O=C(O)c1cn(C2CC2)c2c(OC(F)F)c(N3CC4CC(O)C(O)C4C3)c(F)cc2c1=O` (centres unmarked) [drawing 459], the MIC in the assay on S. pneumo SV-1 is 0.25 µg/mL (≈ 0.55 µM); in the assay with S pyogenes C203, 0.5 µg/mL (≈ 1.1 µM); in the assay on S. aureus UC-76, 0.008 µg/mL (≈ 0.0176 µM); in the assay with E. faecalis MGH-2, 0.25 µg/mL (≈ 0.55 µM).
Consider `COc1c(N2C[C@@H]3CC[C@@](O)(CO)[C@@H]3C2)c(F)cc2c(=O)c(C(=O)O)cn(C3CC3)c12` [drawing 460], for which the MIC in the assay on S. pneumo SV-1 stood at 0.25 µg/mL (≈ 0.578 µM); in the assay with S pyogenes C203 it was 0.5 µg/mL (≈ 1.16 µM); in the assay with S. aureus UC-76, 0.015 µg/mL (≈ 0.0347 µM); in the assay on E. faecalis MGH-2 it was 0.25 µg/mL (≈ 0.578 µM).
For `Cc1c(N2C[C@@H]3CC[C@@](O)(CO)[C@@H]3C2)c(F)cc2c(=O)c(C(=O)O)cn(C3CC3)c12` [drawing 461], the MIC in the assay on S. pneumo SV-1 is 0.06 µg/mL (≈ 0.144 µM); with S pyogenes C203, 0.25 µg/mL (≈ 0.6 µM); in the assay with S. aureus UC-76 it was 0.008 µg/mL (≈ 0.0192 µM); in the assay on E. faecalis MGH-2 it was 0.125 µg/mL (≈ 0.3 µM).
Consider `COc1c(N2C[C@]3(CO)CCC[C@]3(CO)C2)c(F)cc2c(=O)c(C(=O)O)cn(C3CC3)c12` [drawing 462], for which the MIC with S. pneumo SV-1 was 0.25 µg/mL (≈ 0.56 µM); in the assay with S pyogenes C203, 1 µg/mL (≈ 2.24 µM); in the assay on S. aureus UC-76, 0.15 µg/mL (≈ 0.336 µM); in the assay with E. faecalis MGH-2, 0.5 µg/mL (≈ 1.12 µM).
In the same order, the values of `Cc1c(N2CC3(CO)CCCC3(CO)C2)c(F)cc2c(=O)c(C(=O)O)cn(C3CC3)c12` (centres unmarked) [drawing 463] are 0.06 µg/mL (≈ 0.139 µM), 0.125 µg/mL (≈ 0.29 µM), 0.004 µg/mL (≈ 0.00929 µM) and 0.125 µg/mL (≈ 0.29 µM).
